Values of other authors, collected in patent US20090297625A1, “AGENT FOR TREATING EYE DISEASES” (OTKRYTOE AKTSIONERNOE OBSCHESTVO ZAVOD, priority 2006, published 2009).

Settings: administration of lutein as an additive

CC1=C[C@H](O)CC(C)(C)[C@H]1/C=C/C(C)=C/C=C/C(C)=C/C=C/C=C(C)/C=C/C=C(C)/C=C/C1=C(C)C[C@@H](O)CC1(C)C [lutein]
absorption and storage in the macula lutea: well absorbed and stored in the macula lutea
